The text below walks through data of US20100168176A1, “NOVEL COMPOUNDS, PHARMACEUTICAL COMPOSITIONS CONTAINING SAME, AND METHODS OF USE FOR SAME” (FASGEN LLC, priority 2006, published 2010).

What is called IC50 is the concentration that inhibits the measured activity by half.

Each structure is given as a SMILES string. In brackets after ≈: the same amount, converted by molar mass.

One experiment relates to OV. The experiment in a line: XTT cytotoxicity assay, OV. Format: cell-based. In general terms: Formazan colour is commonly taken as a measure of viable cells.
The subject of experiment [1] is MCF-7 human breast cancer cells. In words: Crystal violet cell growth assay, MCF-7. The class given is cell-based. The conditions noted are these: MCF7, no cell code printed, MCF-7 per method, 72 hours, read-out: Cr. Violet (IC50). On the procedure: Crystal Violet Cell Growth Assay
The crystal violet assay measure cell growth but not cytotoxicity. This assay employs crystal violet staining of fixed cells in 96-well plates with subsequent solubilization and measurement of OD490 on a spectrophotometer. The OD490 corresponds to cell growth per unit time measured. Cells are treated with the compounds of interest or vehicle controls and IC50 for each compound is computed.
To measure the cytotoxicity of specific compounds against cancer cells, 5×10^4 MCF-7 human breast cancer cells, obtained from the American Type Culture Collection are plated per well in 24 well plates in DMEM medium with 10% fetal bovine serum, penicillin, and streptomycin. Following overnight culture at 37° C. and 5% CO2, the compounds to be tested, dissolved in DMSO, are added to the wells in 1 μl volume at the following concentrations: 50, 40, 30, 20, and 10 μg/ml in triplicate. […]
After 72 hours of incubation, cells are stained with 0.5 ml of Crystal Violet stain (0.5% in 25% methanol) in each well. […] Following transfer of 100 μl from each well to a 96-well plate, plates are read at OD490 on a Molecular Devices SpectraMax Plus Spectrophotometer Average OD490 values are computed using SOFTmax Pro Software (Molecular Devices) and IC50 values are determined by linear regression analysis using Prism version 3.02 (Graph Pad Software, San Diego).

Experiment [2] shares this test system. The experiment in a line: XTT cytotoxicity assay, MCF-7 (M). The conditions noted are these: Homo sapiens, MCF7; (M) or no code; MCF-7, 72 hours. The class given is cell-based. On the procedure: The XTT assay is a non-radioactive alternative for the [^51Cr] release cytotoxicity assay. XTT is a tetrazolium salt that is reduced to a formazan dye only by metabolically active, viable cells. The reduction of XTT is measured spectrophotometrically as OD490-OD650.
To measure the cytotoxicity of specific compounds against cancer cells, 9×10^3 MCF-7 human breast cancer cells, obtained from the American Type Culture Collection are plated per well in 96 well plates in DMEM medium with 10% fetal bovine serum, insulin, penicillin, and streptomycin. Following overnight culture at 37° C. and 5% CO2, the compounds to be tested, dissolved in DMSO, are added to the wells in 1 μl volume at the following concentrations: 80, 40, 20, 10, 5, 2.5, 1.25, and 0.625 μg/ml in triplicate. Additional concentrations are tested if required. 1 μl of DMSO is added to triplicate wells are the vehicle control. C75 is run at 40, 20, 10, […], 10, and 5 in triplicate as positive controls.
After 72 hours of incubation, cells are incubated for 4 hours with the XTT reagent as per manufacturer's instructions (Cell Proliferation Kit II (XTT) Roche). Plates are read at OD490 and OD650 on a Molecular Devices SpectraMax Plus Spectrophotometer. Three wells containing the XTT reagent without cells serve as the plate blank. XTT data are reported as OD490-OD650. Averages and standard error of the mean are computed using SOFTmax Pro software ([…]).
The IC50 for the compounds is defined as the concentration of drug leading to a 50% reduction in OD400-OD650 compared to controls. The OD400-OD650 are computed by the SOFTmax PRO software (Molecular Devices) for each compound concentration. IC50 is calculated by linear regression, plotting the FAS activity as percent of control versus drug concentrations. Linear regression, best-fit line, r^2, and 95% confidence intervals are determined using Prism Version 3.0 (Graph Pad Software).

The test system of another experiment is FAO. In words: FAO SC 150 / FAO Max. The settings on record: for FAO Max: at the concentration given under E18.

Turning to `CCCCCCCCC1(C)SC(=O)C=C1OCC(=O)NNc1ccccc1Cl` (stereo not drawn) [Compound 19, (5-Methyl-5-octyl-2-oxo-thiophen-4-yloxy)-acetic-acid-N′-(2-chlorophenyl)-hydrazide], the IC50 in the experiment on OV came out at 9.4 µg/mL (≈ 22.1 µM). Besides, the IC50 in experiment [1] was found to be 7.6 µg/mL (≈ 17.9 µM). This compound also returned an IC50 in experiment [2] of 6.1 ± 0.3 µg/mL (≈ 14.4 µM). In addition, in the experiment with FAO, the “FAO Max: concentration at which the maximum was seen” value turned out to be 0.125 µg/mL, the “FAO SC 150” value is recorded as “Neg” and the “FAO Max” value was 90% @.
Regarding `CCCCCCCCC1(C)SC(=O)C=C1OCC(=O)NNC(=O)c1ccncc1` (stereo not drawn) [Compound 20], the IC50 in the experiment on OV was found to be 33 ± 9.1 µg/mL (≈ 78.7 µM). Moreover, in experiment [1], the concentration for half-maximal inhibition (IC50) was 18.2 µg/mL (≈ 43.4 µM). The same compound registered an IC50 in experiment [2] of 22.5 ± 2 µg/mL (≈ 53.6 µM). In addition, in the experiment on FAO, the “FAO Max: concentration at which the maximum was seen” value is 0.125 µg/mL, the “FAO SC 150” value is reported as “Neg” and the “FAO Max” value is recorded as 89% @.
